Assays:
Assay type in all cases: in vivo
[1] = system: Echinochloa crus-galli (ECHCG); assay: Post-emergence test, herbicidal damage; conditions: sprayed after 8 days cultivation, 1000 g/ha, evaluated after 13 days
Description: (§1) Seeds of a variety of test species are sown in standard soil in pots (Amaranthus retoflexus (AMARE), Echinochloa crus-galli (ECHCG), Amaranthus palmeri (AMAPA), Setaria faberi (SETFA), Zea mays (ZEAMX), Ipomoea hederacea (IPOHE)). After 8 days cultivation under controlled conditions in a glasshouse (at 24° C./16° C., day/night; 14 hours light; 65% humidity), the plants are sprayed with an aqueous spray solution derived from the formulation of the technical active ingredient in acetone/water (50:50) solution containing 0.5% Tween 20 (polyoxyethylene sorbitan monolaurate, CAS RN 9005-64-5). Compounds are applied at 1000 g/ha unless otherwise stated. The test plants are then grown in a glasshouse under controlled conditions in a glasshouse (at 24° C./16° C., day/night; 14 hours light; 65% humidity) and watered twice daily. After 13 days the test is evaluated for the percentage damage caused to the plant. The biological activities are shown in the following table on a five-point scale (5=81-100%; 4=61-80%; 3=41-60%; 2=21-40%; 1=10-20%; 0=0%; -=not tested).

[2] = system: Ipomoea hederacea (IPOHE); assay: Post-emergence test, herbicidal damage; conditions: sprayed after 8 days cultivation, 1000 g/ha, evaluated after 13 days
Description: as §1

[3] = system: Zea mays (ZEAMX); assay: Post-emergence test, herbicidal damage; conditions: sprayed after 8 days cultivation, 1000 g/ha, evaluated after 13 days
Description: as §1

[4] = system: Amaranthus palmeri (AMAPA); assay: Post-emergence test, herbicidal damage; conditions: sprayed after 8 days cultivation, 1000 g/ha, evaluated after 13 days
Description: as §1

[5] = system: Amaranthus retoflexus (AMARE); assay: Post-emergence test, herbicidal damage; conditions: sprayed after 8 days cultivation, 1000 g/ha, evaluated after 13 days
Description: as §1

[6] = system: Setaria faberi (SETFA); assay: Post-emergence test, herbicidal damage; conditions: sprayed after 8 days cultivation, 1000 g/ha, evaluated after 13 days
Description: as §1

[7] = system: Amaranthus palmeri (AMAPA); assay: Pre-emergence test, herbicidal damage; conditions: 1000 g/ha, evaluated after 13 days
[8] = system: Ipomoea hederacea (IPOHE); assay: Pre-emergence test, herbicidal damage; conditions: 1000 g/ha, evaluated after 13 days
[9] = system: Amaranthus retoflexus (AMARE); assay: Pre-emergence test, herbicidal damage; conditions: 1000 g/ha, evaluated after 13 days
[10] = system: Echinochloa crus-galli (ECHCG); assay: Pre-emergence test, herbicidal damage; conditions: 1000 g/ha, evaluated after 13 days
[11] = system: Zea mays (ZEAMX); assay: Pre-emergence test, herbicidal damage; conditions: 1000 g/ha, evaluated after 13 days

| SMILES | percentage damage caused to the plant, ECHCG [1] | percentage damage caused to the plant, IPOHE [2] | percentage damage caused to the plant, ZEAMX [3] | percentage damage caused to the plant, AMAPA [4] | percentage damage caused to the plant, AMARE [5] | percentage damage caused to the plant, SETFA [6] | percentage damage caused to the plant, AMAPA [7] | percentage damage caused to the plant, IPOHE [8] | percentage damage caused to the plant, AMARE [9] | percentage damage caused to the plant, ECHCG [10] | percentage damage caused to the plant, ZEAMX [11] |
| --- | --- | --- | --- | --- | --- | --- | --- | --- | --- | --- | --- |
| CCOC(=O)c1nn(-c2cnc(OC)c(F)c2)c2cccc(Br)c2c1=O [Compound 22, ethyl 5-bromo-1-(5-fluoro-6-methoxy-3-pyridyl)-4-oxo-cinnoline-3-carbox-ylate] | 0 (0=0%) | 0 (0=0%) | 0 (0=0%) | 0 (0=0%) | 0 (0=0%) | 0 (0=0%) |  |  |  |  |  |
| CCOC(=O)c1nn(-c2ccc(OC(F)F)nc2)c2cccc(C#N)c2c1=O [Compound 35, ethyl 5-cyano-1-[6-(difluoromethoxy)-3-pyridyl]-4-oxo-cinnoline-3-carboxylate] | 0 (0=0%) | 1 (1=10-20%) |  | 1 (1=10-20%) | 1 (1=10-20%) | 0 (0=0%) |  |  |  |  |  |
| CCOC(=O)c1nn(-c2ccc(OC(F)F)nc2)c2cccc(C(C)=O)c2c1=O [Compound 37, ethyl 5-acetyl-1-[6-(difluoromethoxy)-3-pyridyl]-4-oxo-cinnoline-3-carboxylate] | 4 (4=61-80%) | 2 (2=21-40%) |  | 0 (0=0%) | 1 (1=10-20%) | 1 (1=10-20%) | 0 (0=0%) | 0 (0=0%) | 0 (0=0%) | 4 (4=61-80%) | 4 (4=61-80%) |
| CCOC(=O)c1nn(-c2ccc(F)nc2)c2cccc(C#N)c2c1=O [Compound 11, ethyl 5-cyano-1-(6-fluoro-3-pyridyl)-4-oxo-cinnoline-3-carboxylate] | 2 (2=21-40%) | 0 (0=0%) | 1 (1=10-20%) | 0 (0=0%) | 0 (0=0%) | 0 (0=0%) |  |  |  |  |  |
| CCOC(=O)c1nn(-c2cncc(Cl)c2)c2cccc(Br)c2c1=O [Compound 5, ethyl 5-bromo-1-(5-chloro-3-pyridyl)-4-oxo-cinnoline-3-carboxylate] | 2 (2=21-40%) | 1 (1=10-20%) | 1 (1=10-20%) | 1 (1=10-20%) | 1 (1=10-20%) | 2 (2=21-40%) |  |  |  |  |  |
| CCOC(=O)c1nn(-c2ccc(C(F)F)nc2)c2cccc(Br)c2c1=O [Compound 30, ethyl 5-bromo-1-[6-(difluoromethyl)-3-pyridyl]-4-oxo-cinnoline-3-carboxylate] | 4 (4=61-80%) | 2 (2=21-40%) |  | 1 (1=10-20%) | 1 (1=10-20%) | 0 (0=0%) | 0 (0=0%) | 0 (0=0%) | 0 (0=0%) | 2 (2=21-40%) | 0 (0=0%) |
| CCOC(=O)c1nn(-c2ccnc(OC(F)F)c2)c2cccc(/C(C)=N\OC)c2c1=O [Compound 41, ethyl 1-[2-(difluoromethoxy)-4-pyridyl]-5-[(Z)—N-methoxy-C-methyl-carbonimidoyl]-4-oxo-cinnoline-3-carboxylate] | 2 (2=21-40%) | 1 (1=10-20%) |  | 1 (1=10-20%) | 1 (1=10-20%) | 1 (1=10-20%) | 0 (0=0%) | 0 (0=0%) | 0 (0=0%) | 4 (4=61-80%) | 1 (1=10-20%) |
| CCOC(=O)c1nn(-c2ccnc(OC(F)F)c2)c2cccc(Br)c2c1=O [Compound 38, ethyl 5-bromo-1-[2-(difluoromethoxy)-4-pyridyl]-4-oxo-cinnoline-3-carboxylate] | 0 (0=0%) | 2 (2=21-40%) |  | 1 (1=10-20%) | 2 (2=21-40%) | 1 (1=10-20%) |  |  |  |  |  |
| CCOC(=O)c1nn(-c2ccc(OC)nc2)c2cccc(Br)c2c1=O [Compound 4, ethyl 5-bromo-1-(6-methoxy-3-pyridyl)-4-oxo-cinnoline-3-carboxylate] | 0 (0=0%) | 0 (0=0%) | 0 (0=0%) | 1 (1=10-20%) | 2 (2=21-40%) | 0 (0=0%) |  |  |  |  |  |
| CCOC(=O)c1nn(-c2ncc(Cl)cc2C#N)c2cccc(Br)c2c1=O [Compound 33, ethyl 5-bromo-1-(5-chloro-3-cyano-2-pyridyl)-4-oxo-cinnoline-3-carboxylate] | 1 (1=10-20%) | 1 (1=10-20%) | 0 (0=0%) |  | 0 (0=0%) | 1 (1=10-20%) |  |  |  |  |  |
| CCOC(=O)c1nn(-c2cncnc2)c2cccc(Br)c2c1=O [Compound 8, ethyl 5-bromo-4-oxo-1-pyrimidin-5-yl-cinnoline-3-carboxylate] | 0 (0=0%) | 0 (0=0%) | 0 (0=0%) | 0 (0=0%) | 0 (0=0%) | 0 (0=0%) |  |  |  |  |  |
| CCOC(=O)c1nn(-c2cnc(Cl)c(C)c2)c2cccc(Br)c2c1=O [Compound 26, ethyl 5-bromo-1-(6-chloro-5-methyl-3-pyridyl)-4-oxo-cinnoline-3-carboxylate] | 0 (0=0%) | 2 (2=21-40%) |  | 1 (1=10-20%) | 2 (2=21-40%) | 1 (1=10-20%) | 1 (1=10-20%) | 0 (0=0%) | 1 (1=10-20%) | 0 (0=0%) | 0 (0=0%) |
| CCOC(=O)c1nn(-c2cnc3c(c2)OC(F)(F)O3)c2cccc(Br)c2c1=O [Compound 24, ethyl 5-bromo-1-(2,2-difluoro-[1,3]dioxolo[4,5-b]pyridin-6-yl)-4-oxo-cinnoline-3-carboxylate] | 2 (2=21-40%) | 0 (0=0%) | 1 (1=10-20%) | 0 (0=0%) | 0 (0=0%) | 2 (2=21-40%) |  |  |  |  |  |
| CCOC(=O)c1nn(-c2cnc(OC)c(C)c2)c2cccc(Br)c2c1=O [Compound 29, ethyl 5-bromo-1-(6-methoxy-5-methyl-3-pyridyl)-4-oxo-cinnoline-3-carboxylate] | 1 (1=10-20%) | 2 (2=21-40%) |  | 1 (1=10-20%) | 2 (2=21-40%) | 0 (0=0%) |  |  |  |  |  |
| CCOC(=O)c1nn(-c2ccnc(OC)c2)c2cccc(Br)c2c1=O [Compound 9, ethyl 5-bromo-1-(2-methoxy-4-pyridyl)-4-oxo-cinnoline-3-carboxylate] | 1 (1=10-20%) | 0 (0=0%) | 1 (1=10-20%) | 1 (1=10-20%) | 1 (1=10-20%) | 0 (0=0%) |  |  |  |  |  |
| CCOC(=O)c1nn(-c2ccnc(Cl)c2)c2cccc(Br)c2c1=O [Compound 3, ethyl 5-bromo-1-(2-chloro-4-pyridyl)-4-oxo-cinnoline-3-carboxylate] | 2 (2=21-40%) | 0 (0=0%) | 0 (0=0%) | 1 (1=10-20%) | 2 (2=21-40%) | 0 (0=0%) |  |  |  |  |  |
